In general, EC50 refers to the concentration that produces a half-maximal response. A higher EC50 goes with a need for much substance.

Structures are written as SMILES.

In this test the target is GLP-1R (Homo sapiens, UniProt P43220). In words: GLP-1R agonist cAMP stimulation assay (HTRF cAMP). Particulars: HEK293 cell line expressing GLP-1 target; HTRF cAMP agonist mode, 30 min at RT. The class given is cell-based. A digest of the protocol: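 GLP-1R-expressing cells were stimulated with 10-point, 3-fold compound dilutions for 30 min at RT; HTRF cAMP detection reagents were then added for 60 min and the 665/615 ratio read. Ratios were converted to cAMP via a standard curve and % activity scaled between DMSO and top-concentration GLP-1(7-37) reference wells.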
GLP-1R, sequence (P43220 24-463): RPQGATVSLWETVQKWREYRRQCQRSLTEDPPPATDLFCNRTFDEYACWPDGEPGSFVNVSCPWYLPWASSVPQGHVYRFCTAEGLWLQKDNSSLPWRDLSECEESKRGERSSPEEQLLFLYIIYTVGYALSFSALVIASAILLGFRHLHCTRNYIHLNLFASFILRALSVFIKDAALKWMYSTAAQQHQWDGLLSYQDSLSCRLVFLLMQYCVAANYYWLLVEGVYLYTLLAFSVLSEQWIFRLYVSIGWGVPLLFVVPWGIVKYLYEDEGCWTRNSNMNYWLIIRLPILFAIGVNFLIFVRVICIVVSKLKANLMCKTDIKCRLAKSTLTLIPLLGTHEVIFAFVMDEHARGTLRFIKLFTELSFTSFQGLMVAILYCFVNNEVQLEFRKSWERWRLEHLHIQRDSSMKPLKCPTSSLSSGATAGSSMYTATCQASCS
In general terms: Time-resolved FRET reads energy transfer from a long-lived donor to a nearby acceptor.
In turn, `Cc1cc(NC(=O)c2ccc3c(c2)nc(CN2CC=C(c4cccc(OCc5ccc(C#N)cc5F)n4)CC2)n3C[C@@H]2CCO2)cc2cn[nH]c12` [Compound 188] registered a half-maximal effective concentration (EC50) of 1.19 nM.

Regarding `Cc1n[nH]c2ncc(NC(=O)c3ccc4c(c3)nc(CN3CC=C(c5cccc(OCc6ccc(Cl)cc6F)n5)CC3)n4C[C@@H]3CCO3)cc12` [Compound 189], a half-maximal response (EC50) required 3.54 nM.

The compound `Cc1n[nH]c2ncc(NC(=O)c3ccc4c(c3)nc(CN3CC=C(c5cccc(OCc6ccc(Cl)cc6F)n5)CC3)n4C[C@@H]3CCO3)nc12` [Compound 190] came in with a 50% effective concentration (EC50) of 9.27 nM.

Turning to `Cc1n[nH]c2ccc(NC(=O)c3ccc4c(c3)nc(CN3CC=C(c5cccc(OCc6ccc(Cl)cc6F)n5)CC3)n4C[C@@H]3CCO3)nc12` [Compound 191], it took 3.69 nM to reach a half-maximal effect (EC50).

`Cc1n[nH]c2cnc(NC(=O)c3ccc4c(c3)nc(CN3CC=C(c5cccc(OCc6ccc(Cl)cc6F)n5)CC3)n4C[C@@H]3CCO3)cc12` [Compound 192] came in with a 50% effective concentration (EC50) of 9.87 nM.

The compound `O=C(Nc1ccc2[nH]nnc2c1)c1ccc2c(c1)nc(CN1CCC(c3cccc(OCc4ccc(Cl)cc4F)n3)CC1)n2C[C@@H]1CCO1` [Compound 193] yielded an EC50 of 0.21 nM.

Turning to `Cc1cc(NC(=O)c2ccc3c(c2)nc(CN2CCC(c4cccc(OCc5ccc(Cl)cc5F)n4)CC2)n3C[C@@H]2CCO2)cc2nn[nH]c12` [Compound 194], it took 0.33 nM to reach a half-maximal effect (EC50).

Compound `Cc1n[nH]c2cnc(NC(=O)c3ccc4c(c3)nc(CN3CCC(c5cccc(OCc6ccc(Cl)cc6F)n5)CC3)n4C[C@@H]3CCO3)nc12` [Compound 195] returned a half-maximal effective concentration (EC50) of 2.31 nM.

`Cc1n[nH]c2ccc(C(=O)Nc3ccc4c(c3)nc(CN3CC=C(c5cccc(OCc6ccc(Cl)cn6)n5)CC3)n4C[C@@H]3CCO3)cc12` [Compound 198] came in with an EC50 of 0.35 nM.

`Cc1cc(C(=O)Nc2ccc3c(c2)nc(CN2CC=C(c4cccc(OCc5ccc(Cl)cc5F)n4)CC2)n3C[C@@H]2CCO2)cc2cn[nH]c12` [Compound 199] showed a 50% effective concentration (EC50) of 0.47 nM.

The compound `CC(C)c1n[nH]c2ccc(C(=O)Nc3ccc4c(c3)nc(CN3CC=C(c5cccc(OCc6ccc(Cl)cc6F)n5)CC3)n4C[C@@H]3CCO3)cc12` [Compound 200] yielded a concentration giving a half-maximal response (EC50) of 0.82 nM.

`COc1n[nH]c2ccc(C(=O)Nc3ccc4c(c3)nc(CN3CC=C(c5cccc(OCc6ccc(Cl)cc6F)n5)CC3)n4C[C@@H]3CCO3)cc12` [Compound 201] came in with an EC50 of 1.99 nM.

Compound `O=C(Nc1ccc2c(c1)nc(CN1CC=C(c3cccc(OCc4ccc(Cl)cc4F)n3)CC1)n2C[C@@H]1CCO1)c1ccc2[nH]nc(F)c2c1` [Compound 202] had an EC50 of 2.21 nM.

Consider `O=C(Nc1ccc2c(c1)nc(CN1CC=C(c3cccc(OCc4ccc(Cl)cc4F)n3)CC1)n2C[C@@H]1CCO1)c1ccc2[nH]ncc2c1` [Compound 204], for which a half-maximal effect (EC50) was put at 0.63 nM.

In turn, `O=C(Nc1ccc2c(c1)nc(CN1CC=C(c3cccc(OCc4ccc(Cl)cc4F)n3)CC1)n2C[C@@H]1CCO1)c1cc(F)c2[nH]ncc2c1` [Compound 205] yielded an EC50 of 0.98 nM.

The compound `O=C(Nc1ccc2c(c1)nc(CN1CC=C(c3cccc(OCc4ccc(Cl)cc4F)n3)CC1)n2CC1CCO1)c1ccn2ncc(Cl)c2c1` (centres unmarked) [Compound 206] showed a half-maximal effective concentration (EC50) of 5.91 nM.

As for `O=C(Nc1ccc2c(c1)nc(CN1CC=C(c3cccc(OCc4ccc(Cl)cc4F)n3)CC1)n2C[C@@H]1CCO1)c1cc(F)c2c(c1)C1(CC1)C(=O)N2` [Compound 208], the EC50 came out at 0.25 nM.

With `Cc1cc(C(=O)Nc2ccc3c(c2)nc(CN2CC=C(c4cccc(OCc5ccc(Cl)cc5F)n4)CC2)n3C[C@@H]2CCO2)cc2c1NC(=O)C21CC1` [Compound 209], the midpoint of the response, the EC50, lay at 0.32 nM.

For the compound `Cc1n[nH]c2c(C(F)(F)F)cc(C(=O)Nc3ccc4c(c3)nc(CN3CC=C(c5cccc(OCc6ccc(Cl)cc6F)n5)CC3)n4C[C@@H]3CCO3)cc12` [Compound 210], the EC50 turned out to be 0.39 nM.

In turn, `O=C(Nc1ccc2c(c1)nc(CN1CC=C(c3cccc(OCc4ccc(Cl)cn4)n3)CC1)n2C[C@@H]1CCO1)c1cc(C(F)(F)F)c2c(c1)C1(CC1)C(=O)N2` [Compound 211] displayed a half-maximal effective concentration (EC50) of 1.02 nM.
